Laboratory results reported in patent US11027028B2, “Manganese complexes with substituted bisphosphonates useful as imaging and therapeutic agents” (DUKE UNIVERSITY, priority 2015, dated 2021).
Values belong to the compound of their own block, whether it stands above or below them.

Legend:
[1] = tested on: 4T1 tumor; assay: Dynamic contrast enhancement of 4T1 tumor after i.v. administration; type: in vivo; details: pilot data
Experimental: FIG. 5. Dynamic contrast enhancement of 4T1 tumor after i.v. administration of 1-hydroxybisphosphonate:Mn complex linked to HSP90 inhibitor as in Scheme 1C, 25 mg/kg. Graph on left depicts relative change in T1 enhancement in tumors after labeled drug (n=5) and after Mn:ETID complex alone (n=6).
Several synthetic strategies were used for labeling small molecule drugs either directly or via polyethyleneglycol (PEG) linkers. Two complexes, the first with a medronate analogue (Scheme IB) via the amine-terminated PEG linker and the second an etidronate analogue coupled through the COOH-terminated PEG linker (Scheme 1C), were synthesized, characterized and studied preliminarily in vivo.

[2] = previously FDA-approved Mn(II) agent; cited from earlier work
[3] = In vivo MRI after i.v. administration of Mn(II) complexes; design: species or system mouse
Experimental: FIG. 4. A, In vivo MRI in control mouse after i.v. administration of MnNTA. B, MRI after i.v. administration of Mn:ETID ([…] of 40 mM solution).
In vivo behavior was tested of two relatively strong (log K1>7) ligands for Mn(II) chelation, nitrilotriacetic acid (NTA), closely related to EDTA, and […] (3,4-DBA).
Enhancement of the bowel is also noted but more variable, believed to represent elimination of the coordination complex from the gallbladder into the small intestine. In addition, subtle but transient T1 changes are observed in the skeletal muscles and long bones that return to normal after 30 min, paralleling the mild residual T1 changes in major vessels, consistent with a blood pool rather than local parenchymal uptake effect.

Structure (SMILES): Cc1nn(-c2ccc(C(N)=O)c(NCCCOCCOCCOCCOCCOCCCC(=O)NCCCC(O)(P(=O)(O)O)P(=O)(O)O)c2)c2c1C(=O)CC(C)(C)C2 [Scheme 1C]
Enhancement in 4T1 tumors relative to paramagnetic coordination complex alone [1]: progressive accumulation of enhancement in 4T1 tumors that is greater than what is seen for the paramagnetic coordination complex alone

Structure (SMILES): Cc1ncc(COP(=O)([O-])[O-])c(CN(CCN(CC(=O)[O-])Cc2c(COP(=O)([O-])[O-])cnc(C)c2[O-])CC(=O)[O-])c1[O-].[H+].[H+].[H+].[Mn+2].[Na+].[Na+].[Na+] [Teslascan, mangafodipir trisodium]
In vivo distribution [2]: immediately distributed to the liver, releasing free Mn

Cardiac enhancement ([3]; after i.v. administration, indicates free Mn released into the blood pool): cardiac enhancement was also seen
Structure (SMILES): O=C(O)CN(CC(=O)O)CC(=O)O [NTA, nitrilotriacetic acid]
Biodistribution on in vivo MR imaging ([3]; mouse, in vivo, iv): release of free Mn and hepatocellular uptake
